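Results reflect a 48-hour exposure of cells in 96-well plates to compound at five concentrations. Definition used: TGI = concentration required for complete inhibition of growth.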
Legend:
Experiment in all cases: inhibition of tumour cell growth, NCI panel, 48 h
NCI-H23 lung = system: NCI-H23 lung
HL-60(TB) leukemia = system: HL-60(TB) leukemia
M19-MEL melanoma = system: M19-MEL melanoma
IGROV1 ovarian = system: IGROV1 ovarian
ACHN renal = system: ACHN renal
HCT-15 colon = system: HCT-15 colon
NCI-H522 lung = system: NCI-H522 lung
CCRF-CEM leukemia = system: CCRF-CEM leukemia
KM20L2 colon = system: KM20L2 colon
SW-620 colon = system: SW-620 colon
M14 melanoma = system: M14 melanoma
SF-295 CNS = system: SF-295 CNS
MALME-3M melanoma = system: MALME-3M melanoma
A549 NSCLC = system: A549 NSCLC
UO-31 renal = system: UO-31 renal
SN12C renal = system: SN12C renal
HT29 colon = system: HT29 colon
MOLT-4 leukemia = system: MOLT-4 leukemia
DMS 273 small cell lung = system: DMS 273 small cell lung
786-0 renal = system: 786-0 renal
RXF-631 renal = system: RXF-631 renal
SF-268 CNS = system: SF-268 CNS
HCC-2998 colon = system: HCC-2998 colon
HCT-116 colon = system: HCT-116 colon
TK-10 renal = system: TK-10 renal
OVCAR-4 ovarian = system: OVCAR-4 ovarian
UACC-62 melanoma = system: UACC-62 melanoma
OVCAR-8 ovarian = system: OVCAR-8 ovarian
RXF 393 renal = system: RXF 393 renal
UACC-257 melanoma = system: UACC-257 melanoma
SK-MEL-28 melanoma = system: SK-MEL-28 melanoma
HOP-62 NSCLC = system: HOP-62 NSCLC
A498 renal = system: A498 renal
RPMI-8226 leukemia = system: RPMI-8226 leukemia
NCI-H460 lung = system: NCI-H460 lung
SNB-75 CNS = system: SNB-75 CNS
LXFL 529 NSCLC = system: LXFL 529 NSCLC
SK-OV-3 ovarian = system: SK-OV-3 ovarian
SNB-78 CNS = system: SNB-78 CNS
OVCAR-3 ovarian = system: OVCAR-3 ovarian
OVCAR-5 ovarian = system: OVCAR-5 ovarian
SNB-19 CNS = system: SNB-19 CNS
K-562 leukemia = system: K-562 leukemia
NCI-H226 lung = system: NCI-H226 lung
EKVX NSCLC = system: EKVX NSCLC
CAKI-1 renal = system: CAKI-1 renal
COLO 205 colon = system: COLO 205 colon
DMS 114 small cell lung = system: DMS 114 small cell lung
U251 CNS = system: U251 CNS
HOP-92 NSCLC = system: HOP-92 NSCLC
SF-539 CNS = system: SF-539 CNS
DLD-1 colon = system: DLD-1 colon
LOX IMVI melanoma = system: LOX IMVI melanoma
KM12 colon = system: KM12 colon
SK-MEL-2 melanoma = system: SK-MEL-2 melanoma
SK-MEL-5 melanoma = system: SK-MEL-5 melanoma
HOP-18 NSCLC = system: HOP-18 NSCLC
SR leukemia = system: SR leukemia
XF 498 CNS = system: XF 498 CNS

Measured: TGI

COc1cc(CC(=O)O)c([N+](=O)[O-])cc1OC
> 100 µM: NCI-H23 lung | HL-60(TB) leukemia | M19-MEL melanoma | IGROV1 ovarian | ACHN renal | HCT-15 colon | NCI-H522 lung | CCRF-CEM leukemia | KM20L2 colon | SW-620 colon | M14 melanoma | SF-295 CNS | MALME-3M melanoma | A549 NSCLC | UO-31 renal | SN12C renal | HT29 colon | MOLT-4 leukemia | DMS 273 small cell lung | 786-0 renal | RXF-631 renal | SF-268 CNS | HCC-2998 colon | HCT-116 colon | TK-10 renal | OVCAR-4 ovarian | UACC-62 melanoma | OVCAR-8 ovarian | RXF 393 renal | UACC-257 melanoma | SK-MEL-28 melanoma | HOP-62 NSCLC | A498 renal | RPMI-8226 leukemia | NCI-H460 lung | SNB-75 CNS | LXFL 529 NSCLC | SK-OV-3 ovarian | SNB-78 CNS | OVCAR-3 ovarian | OVCAR-5 ovarian | SNB-19 CNS | K-562 leukemia | NCI-H226 lung | EKVX NSCLC | CAKI-1 renal | COLO 205 colon | DMS 114 small cell lung | U251 CNS | HOP-92 NSCLC | SF-539 CNS | DLD-1 colon | LOX IMVI melanoma | KM12 colon | SK-MEL-2 melanoma

COC(=O)C(C(=O)C(=O)Nc1ccccc1C)c1nc2ccc([N+](=O)[O-])cc2[nH]c1=O (configuration not stated)
> 100 µM: NCI-H23 lung | HL-60(TB) leukemia | M19-MEL melanoma | SK-MEL-5 melanoma | IGROV1 ovarian | ACHN renal | HCT-15 colon | NCI-H522 lung | CCRF-CEM leukemia | KM20L2 colon | SW-620 colon | M14 melanoma | SF-295 CNS | HOP-18 NSCLC | MALME-3M melanoma | A549 NSCLC | UO-31 renal | SN12C renal | HT29 colon | MOLT-4 leukemia | DMS 273 small cell lung | 786-0 renal | SF-268 CNS | HCC-2998 colon | HCT-116 colon | TK-10 renal | OVCAR-4 ovarian | UACC-62 melanoma | OVCAR-8 ovarian | RXF 393 renal | UACC-257 melanoma | SR leukemia | SK-MEL-28 melanoma | HOP-62 NSCLC | A498 renal | RPMI-8226 leukemia | NCI-H460 lung | SNB-75 CNS | LXFL 529 NSCLC | SK-OV-3 ovarian | SNB-78 CNS | OVCAR-3 ovarian | OVCAR-5 ovarian | SNB-19 CNS | K-562 leukemia | NCI-H226 lung | EKVX NSCLC | CAKI-1 renal | COLO 205 colon | DMS 114 small cell lung | U251 CNS | XF 498 CNS | SF-539 CNS | DLD-1 colon | LOX IMVI melanoma | KM12 colon | SK-MEL-2 melanoma
